Results: US6376666B1 (Nauchno-Issledovatelsky Institut Farmakologii Rossiiskoi …, priority 1994, dated 2002)

What was measured:
Assay type in all cases: in vivo
[1] = tested on: Balb/c mice; assay: open-field test, Balb/c mice (passive type of emotional-stress reaction); set-up: key to Total activity: sum of all locomotor activity counts (crossings + rearings) in 3 min; settings: for effect on the behavior (locomotor activity) of Balb/c mice in open-field test, in words: i.p., screening
Procedure, shortened: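 Male mice, 20-22 g, dosed i.p. in water 30 min before a 3-min open-field test after 1 min in darkness; peripheral, central, rearing and total activity plus defecations recorded; Student t-test. Anxiolysis read as Balb/c activation, sedation as C57B1/6 inhibition.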

[2] = tested on: cats; assay: hemodynamics and activity of intact heart in cats under anesthesia; settings: cats i.v.
Experimental: The effects of compounds on the hemodynamics and activity of intact heart were studied in cats under anesthesia. The experiments were carried out under conditions of open chest. The phase curve of aortic blood flow was the main index of cardiac activity. The compounds were administered i.v. in physiological solution. The t-Student' test was used to estimate the statistical significance.

[3] = tested on: ventricular fibrillations; assay: ventricular fibrillation, 7-min occlusion and reperfusion of coronary artery in anesthetized rats; settings: anesthetized rats i.v.; bonnecor 1,0, IX 2,0, X (printed) 1,0 mg/kg
Experimental: The experiments were conducted in male rats weighing 180-240 g and anesthetized with nembutal (60 mg/kg i.v.) with open chest and artificial respiration. The occlusion of the left coronary artery was performed 1-2 min after experiment beginning with following reperfusion after 7 min. During this period time according to literature data [Krzeminski T., Grzyb J., Kurcok A., Brus R.: Pol.J.Pharmacol., 1992, 44, Suppl., p.169-170] the maximum number of ventricular fibrillations (70-100%) were registered. The ECG in the 2nd standard lead was recorded in “Mingograph-81”. The number of ventricular fibrillations during occlusion and reperfusion periods, the life menacing arrhythmia (fibrillation+paroxysmal ventricular tachycardia) and total number of arrhythmias were calculated. The known antiarrhythmic drug bonnecor was used as the reference agent [Grigorieva E. K., Gorbunova V. V. in: “New antiarrhythmic drug—bonnecor (the pharmacology and clinical usage)”, M., 1993, p.64-67]. The compounds were injected i.v. at the following doses: bonnecor—1,0 mg/kg, compound IX—2,0 mg/kg, compound XX—1,0 mg/kg. The control animals were administered with the equivalent volume of physiological solution (1,0 ml/kg). 4 series of experiments were carried out in 80 rats. The results were assessed according to the method of point scale: the absence of arrhythmia—0 point, extrasystole—1 point, paroxysmal ventricular tachycardia—2 points, ventricular fibrillation—3 points, fibrillation observed during the occlusion of coronary vessel—4 points. For statistical analysis the Fisher's exact probability and Wilconson's methods were used.
[Krzeminski T., Grzyb J., Kurcok A., Brus R.: Pol.J.Pharmacol., 1992, 44, Suppl., p.169-170] have shown that 7 min occlusion with following reperfusion of coronary artery in anesthetized rats produced the ventricular fibrillation (68-100%). Defibrotide and prostacycline decreased the number of fibrillations. We have studied the antifibrillator activity of some derivatives of 2-mercaptbenzimidazole in this model with disturbances of heart rhythm. Bonnecor (1,0 mg/kg) was used as the reference drug. It is well known that this agent produces apronouncedantifibrillatoryactivity [Grigorieva E. K., Gorbunova V. V. in: “New antiarrhythmic drug-bonnecor (the pharmacology and clinical usage)”, M., 1993, p.64-67].

[4] = tested on: C57B1/6 mice; assay: open-field test, C57B1/6 mice (active type of emotional-stress reaction); set-up: key to Total activity: sum of all locomotor activity counts (crossings + rearings) in 3 min; settings: for Central activity (crossings) / Peripheral activity (crossings) / Total activity / Vertical activity (rearings): M ± mx
Excerpt: The main point of this approach consists in comparative analysis of the behavioural effects of tested compounds in two inbred strains of mice Balb/c and C57B1/6 with different hereditary types of emotional-stress reactions (ESR). The anxiolytic effect was estimated as the activation of the locomotor activity of animals with “passive” type of ESR (Balb/c mice). The main index describing the sedative properties of tested drugs was the inhibition of the locomotor activity of mice with “active” type of ESR (C57B1/6 strain). The anxioselectivity was evaluated according to coincidence of doses range which activated or inhibited the behavior of mice of different strains. Earlier this approach has been successfully used for estimation of anxioselective activity of such known drugs as phenazepam [Seredenin S. B. et al., Bull.Exp.Biol.Med., 1979, v.88, N7, p.38; Seredenin S. B. et al., Ann.Inst.Super.Sanita, 1990, v.26, N1, p.81-88], mexidol [Seredenin S. B. et al., Khimiko-Farmatsevt.Zhurnal, 1987, N2, p.134; Vironina T. A., Seredenin S. B., Ann.Inst.Super.Sanita, 1988, v.24, N3, p.461-466] and gidazepam [Seredenin S. B. et al., in: “Gidazepam” Kiev, Naukova Dumka, 1992, p.92; Seredenin S. B., Blednov Yu. A., Phys.Chem.Biol.Med., 1993, v.1, N1, p.53-60].
Male C57B1/6 and Balb/c mice (“Stolbovaya” animal farm), weighing 20-22 g were used. The animals were housed in a separate animal room in groups of ten and maintained on 12 h light-dark cycle (light from 8.00 till 20.00) with free access to standard food and water during two weeks before experiment. Testing was performed between 9.00 and 13.00. Every used compound was administered intraperitoneally in water solutions 30 min before testing (0,1 ml solution per 10 g of weight). The “open-field” apparatus consisted of cylinder closed from one end, illuminated by four 75 W lamps fixed to the walls 100 cm above the floor. The “open-field” apparatus was 100 cm in diameter and white-painted; the floor was marked with 3 black circles and some radial lines divided the floor into 16 peripheral and 8 central segments. 30 min after injection each animal was placed in the same peripheral square on the floor for 3 min of testing after 1 min exposure in the dark chamber. The following behavior variables were recorded: 1) the number of crossings in the peripheral area (peripheral activity); 2) the number of crossings in the central segments (central activity); 3) the number of rearings (vertical activity); 4) the emotionality was measured as the number of defecations during the test. The sum of all types of locomotor activity was marked as total activity. The t-Student test was used for statistical analysis.

[5] = tested on: outbred male rats; assay: conflict Vogel test (punished licking of water); settings: M ± mx
Experimental: The study of anxiolytic activity of chosen compounds was carried out in the experiments with outbred male rats weighing 180-200 g in standard conflict Vogel' procedure [Voronina T. A. et al., in: “Phenazepam”, Naukova Dumka, Kiev, 1982, p.89, 93, 146]. The main aim of the initial step of experiments was the training of rats to develop the feeling of thirst with following experience of water licking from bottle in the experimental chamber. The animals were deprived of water for 24 hours and were placed in the test chamber for 5-min adaptation period during which they had free access to the drinking bottle. After another 24 h deprivation period the rats were placed again in the test chamber and were allowed to drink water for 5 sec. Immediately afterwards drinking attempts were punished by electric shock (0,5 mA). Under this collision of drinking and protective reflexes the extremal situation was developed. In this situation the anxiety of punishment prevented the licking process. The number of shocks received throughout a 5-min experimental session was recorded.

[6] = tested on: outbred male mice; assay: rotarod test (myorelaxant activity); settings: cut-off 120 sec
Experimental: The myorelaxant activity of choosen compounds were studied in the outbred male mice weighing 22-25 g in rotarod test [Voronina T. A. et al., in: “Phenazepam”, Naukova Dumka, Kiev, 1982, p.145]. The animals were placed on the horizontal rotarod (D=2 cm) calibrated for a fixed speed of 4 rpm. According to the rotarod experimental protocol, normal motor coordination was defined by the ability of the animals to remain on the rotarod for an arbitrarily selected time of 120 sec.

[7] = tested on: male outbred mice; assay: potentiation of sleep induced by sodium thiopental
Experimental: The possible hypnotic effects of choosen drugs was estimated according to method of potentiation of sleep induced by sodium thiopental. The male outbred mice weighing 20-25 g were injected i.p. with sodium thiopental at dose of 70 mg/kg. Two parameters were estimated: latent time of sleeping and duration of sleep. The used compounds were administered i.p. 30 min prior injection of sodium thiopental.

[8] = 0.5 mg/kg i.p. 30 min before thiopental 70 mg/kg i.p.
[9] = 1.0 mg/kg i.p. 30 min before thiopental 70 mg/kg i.p.
[10] = 5.0 mg/kg i.p. 30 min before thiopental 70 mg/kg i.p.
[11] = 10.0 mg/kg i.p. 30 min before thiopental 70 mg/kg i.p.

CCOc1ccc2nc(SCCN3CCCC3)[nH]c2c1 [Compound X, 2-[2-(Pyrrolidino)ethylthio]-5-ethoxybenzimidazole]
effect on the behavior (locomotor activity) of Balb/c mice in open-field test, in words [1]: neither activatory nor inhibitory effects | effect on heart rate, in words ([2]; doses of 0,5 mg/kg-2,0 mg/kg): small and short bradycardia | antifibrillatory effect, in words [3]: trend to decrease the number of ventricular fibrillations

Cc1cc2nc(SCCN3CCOCC3)[nH]c2cc1C [XV, 2-[2-(Morpholino)ethylthio]-5,6-dimethylbenzimidazole]
Number of defecations ([1]; 0.01 mg/kg i.p., M ± mx): 0.5 ± 0.5 | Peripheral activity (crossings) ([1]; 0.01 mg/kg i.p., M ± mx): 6.9 ± 1.8 | Total activity ([1]; 0.01 mg/kg i.p., M ± mx): 6.9 ± 1.8 | Number of defecations ([1]; 0.1 mg/kg i.p., M ± mx): 1.0 ± 0.7 | Peripheral activity (crossings) ([1]; 0.1 mg/kg i.p., M ± mx): 11.1 ± 2.1 | Total activity ([1]; 0.1 mg/kg i.p., M ± mx): 11.2 ± 2.1 | Central activity (crossings) ([1]; 0.5 mg/kg i.p., M ± mx): 0.5 ± 0.4 | Number of defecations ([1]; 0.5 mg/kg i.p., M ± mx): 1.6 ± 0.7 | Peripheral activity (crossings) ([1]; 0.5 mg/kg i.p., M ± mx): 32.1 ± 4.7 | Total activity ([1]; 0.5 mg/kg i.p., M ± mx): 32.6 ± 5.0 | Central activity (crossings) ([1]; 1.0 mg/kg i.p., M ± mx): 5.1 ± 4.4 | Number of defecations ([1]; 1.0 mg/kg i.p., M ± mx): 2.0 ± 0.9 | Peripheral activity (crossings) ([1]; 1.0 mg/kg i.p., M ± mx): 37.7 ± 5.5 | Total activity ([1]; 1.0 mg/kg i.p., M ± mx): 42.8 ± 9.9 | Number of defecations ([1]; 5.0 mg/kg i.p., M ± mx): 3.6 ± 0.9 | Peripheral activity (crossings) ([1]; 5.0 mg/kg i.p., M ± mx): 39.1 ± 8.6 | Total activity ([1]; 5.0 mg/kg i.p., M ± mx): 39.1 ± 8.6 | Central activity (crossings) ([1]; 10.0 mg/kg i.p., M ± mx): 0.6 ± 0.5 | Peripheral activity (crossings) ([1]; 10.0 mg/kg i.p., M ± mx): 44.9 ± 13.0 | Total activity ([1]; 10.0 mg/kg i.p., M ± mx): 45.9 ± 13.8 | Vertical activity (rearings) ([1]; 10.0 mg/kg i.p., M ± mx): 0.4 ± 0.3 — | Number of defecations ([1]; 75.0 mg/kg i.p., M ± mx): 2.7 ± 1.3 | Peripheral activity (crossings) ([1]; 75.0 mg/kg i.p., M ± mx): 8.8 ± 2.9 | Total activity ([1]; 75.0 mg/kg i.p., M ± mx): 8.8 ± 2.9 | Peripheral activity (crossings) ([1]; 100.0 mg/kg i.p., M ± mx): 6.5 ± 3.1 | Total activity ([1]; 100.0 mg/kg i.p., M ± mx): 6.5 ± 3.1 | effect on the behavior (locomotor activity) of Balb/c mice in open-field test, in words [1]: able to activate the behavior of Balb/c mice | Central activity (crossings) ([4]; 1.0 mg/kg i.p.): 39.0 ± 6.9 | Peripheral activity (crossings) ([4]; 1.0 mg/kg i.p.): 87.8 ± 6.7 | Total activity ([4]; 1.0 mg/kg i.p.): 138.2 ± 16.1 | Vertical activity (rearings) ([4]; 1.0 mg/kg i.p.): 11.4 ± 2.5 | Central activity (crossings) ([4]; 5.0 mg/kg i.p.): 36.4 ± 5.7 | Peripheral activity (crossings) ([4]; 5.0 mg/kg i.p.): 87.8 ± 14.6 | Total activity ([4]; 5.0 mg/kg i.p.): 139.1 ± 22.6 | Vertical activity (rearings) ([4]; 5.0 mg/kg i.p.): 14.9 ± 2.3 | Central activity (crossings) ([4]; 50.0 mg/kg i.p.): 35.0 ± 8.1 | Peripheral activity (crossings) ([4]; 50.0 mg/kg i.p.): 54.1 ± 10.7 | Total activity ([4]; 50.0 mg/kg i.p.): 95.4 ± 20.4 | Vertical activity (rearings) ([4]; 50.0 mg/kg i.p.): 6.3 ± 1.6 | effect on locomotor activity of C57B1/6 mice in open-field test, in words ([4]; i.p., doses that activate Balb/c mice): without any changes in locomotor activity | number of punished lickings (shocks received in 5-min session) ([5]; 1.0 mg/kg i.p.): 59.1 ± 16.7 | number of punished lickings (shocks received in 5-min session) ([5]; 5.0 mg/kg i.p.): 35.3 ± 5.5 | number of punished lickings (shocks received in 5-min session) ([5]; 10.0 mg/kg i.p.): 38.0 ± 9.4 | number of punished lickings (shocks received in 5-min session) ([5]; 20.0 mg/kg i.p.): 73.9 ± 24.1 | time of remaining on the rotarod ([6]; 0.1 mg/kg): 120 + 0 sec | time of remaining on the rotarod ([6]; 1.0 mg/kg): 120 + 0 sec | time of remaining on the rotarod ([6]; 5.0 mg/kg): 120 + 0 sec | time of remaining on the rotarod ([6]; 10.0 mg/kg): 120 + 0 sec | time of remaining on the rotarod ([6]; 20.0 mg/kg): 120 + 0 sec | duration of sleep after sodium thiopental [7, 8]: 78.4 ± 18.2 min | latent time of sleep after sodium thiopental [7, 8]: 2.5 ± 0.2 s | duration of sleep after sodium thiopental [7, 9]: 70.5 ± 13.7 min | latent time of sleep after sodium thiopental [7, 9]: 2.8 ± 0.2 s | duration of sleep after sodium thiopental [7, 10]: 56.8 ± 19.1 min | latent time of sleep after sodium thiopental [7, 10]: 2.3 ± 0.2 s | duration of sleep after sodium thiopental [7, 11]: 74.7 ± 18.7 min | latent time of sleep after sodium thiopental [7, 11]: 2.8 ± 0.3 s | effect on heart rate, in words ([2]; dose of 5 mg/kg): small, but statistically significant bradycardia
